According to PubChem BioAssay (NCI):
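Cultured in 96-well plates, cells were exposed to test compound for 48 hours across five concentrations. GI50 is the concentration that inhibits growth by half. TGI is the concentration that stops growth completely.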

Key:
Test in all cases: NCI tumour cell line growth inhibition, 48 h
COLO 205 colon = tested on: COLO 205 colon
EKVX NSCLC = tested on: EKVX NSCLC
MCF7 breast = tested on: MCF7 breast
MOLT-4 leukemia = tested on: MOLT-4 leukemia
SNB-75 CNS = tested on: SNB-75 CNS
SR leukemia = tested on: SR leukemia
UACC-257 melanoma = tested on: UACC-257 melanoma
UACC-62 melanoma = tested on: UACC-62 melanoma

O=C1c2cccc3cccc(c23)C(=O)N1CCCCCN1CCN(CCCCCOc2ccc(-c3nc4ccc(N5CCOCC5)cc4[nH]3)cc2)CC1
GI50 (COLO 205 colon): 13100 nM | TGI (COLO 205 colon): 28700 nM | GI50 (EKVX NSCLC): > 47100 nM | TGI (EKVX NSCLC): > 74600 nM | GI50 (MCF7 breast): 2490 nM | TGI (MCF7 breast): 8000 nM | GI50 (MOLT-4 leukemia): 264 nM | TGI (MOLT-4 leukemia): 2290 nM | GI50 (SNB-75 CNS): 18300 nM | TGI (SNB-75 CNS): 34600 nM | GI50 (SR leukemia): 1180 nM | TGI (SR leukemia): 3200 nM | GI50 (UACC-257 melanoma): 2150 nM | TGI (UACC-257 melanoma): 3760 nM | GI50 (UACC-62 melanoma): 16100 nM | TGI (UACC-62 melanoma): > 57100 nM

COc1ccc(-c2nsc3c2NC(=O)CC3c2cccc(OC)c2)cc1 (stereo not given)
GI50 (COLO 205 colon): 801 nM | TGI (COLO 205 colon): 6920 nM | GI50 (MCF7 breast): 550 nM | TGI (MCF7 breast): > 100000 nM | GI50 (MOLT-4 leukemia): 2180 nM | TGI (MOLT-4 leukemia): > 100000 nM | GI50 (SNB-75 CNS): 1300 nM | GI50 (UACC-257 melanoma): 12900 nM | TGI (UACC-257 melanoma): > 100000 nM | GI50 (UACC-62 melanoma): 865 nM | TGI (UACC-62 melanoma): > 100000 nM

Cc1cc2cc3c(=O)[nH]c(=O)[nH]c3nc2cc1C
TGI (COLO 205 colon): > 100000 nM | TGI (EKVX NSCLC): > 100000 nM | TGI (MCF7 breast): > 100000 nM | TGI (MOLT-4 leukemia): > 100000 nM | TGI (SNB-75 CNS): 90000 nM | TGI (SR leukemia): > 100000 nM | TGI (UACC-257 melanoma): > 100000 nM | TGI (UACC-62 melanoma): > 100000 nM

Cc1cc(N(CCCNc2ccnc3cc(Cl)ccc23)Cc2ccc3c(c2)OCO3)nc(N2CCOCC2)n1
GI50 (COLO 205 colon): 269 nM | TGI (COLO 205 colon): 802 nM | GI50 (EKVX NSCLC): 299 nM | TGI (EKVX NSCLC): > 100000 nM | GI50 (MCF7 breast): 286 nM | TGI (MCF7 breast): 92000 nM | GI50 (MOLT-4 leukemia): 283 nM | TGI (MOLT-4 leukemia): 953 nM | GI50 (SNB-75 CNS): 204 nM | TGI (SNB-75 CNS): 626 nM | GI50 (UACC-257 melanoma): 214 nM | TGI (UACC-257 melanoma): 625 nM | GI50 (UACC-62 melanoma): 217 nM | TGI (UACC-62 melanoma): 501 nM

Cn1c(=O)c(Oc2ccc(F)cc2)cc2cnc(NC3CCOCC3)nc21
GI50 (COLO 205 colon): > 25000 nM | TGI (COLO 205 colon): > 25000 nM | GI50 (MCF7 breast): > 25000 nM | TGI (MCF7 breast): > 25000 nM | GI50 (MOLT-4 leukemia): > 25000 nM | TGI (MOLT-4 leukemia): > 25000 nM | GI50 (SNB-75 CNS): > 25000 nM | TGI (SNB-75 CNS): > 25000 nM | GI50 (SR leukemia): > 25000 nM | TGI (SR leukemia): > 25000 nM | GI50 (UACC-257 melanoma): > 25000 nM | TGI (UACC-257 melanoma): > 25000 nM | GI50 (UACC-62 melanoma): > 25000 nM | TGI (UACC-62 melanoma): > 25000 nM

COc1cccc2c1C(=O)c1c(O)c3c(c(O)c1C2=O)C[C@@](O)(/C(C)=N/NC(=O)c1ccc(Cl)cc1)C[C@@H]3OC1CC(N)C(O)C(C)O1 (stereo not given in full)
GI50 (MOLT-4 leukemia): 54.5 nM | TGI (MOLT-4 leukemia): 3310 nM | GI50 (SNB-75 CNS): 102 nM | TGI (SNB-75 CNS): 552 nM | GI50 (UACC-257 melanoma): 188 nM | TGI (UACC-257 melanoma): 867 nM

O=C1CCC/C=C\C[C@H]2C=CC(=O)/C2=C/C[C@H](C/C=C\CC(F)(F)F)O1
GI50 (COLO 205 colon): 368 nM | TGI (COLO 205 colon): 726 nM | GI50 (EKVX NSCLC): 893 nM | TGI (EKVX NSCLC): 3420 nM | GI50 (MCF7 breast): 336 nM | TGI (MCF7 breast): 3160 nM | GI50 (MOLT-4 leukemia): 984 nM | TGI (MOLT-4 leukemia): 7510 nM | GI50 (SNB-75 CNS): 806 nM | TGI (SNB-75 CNS): 3220 nM | GI50 (UACC-62 melanoma): 280 nM | TGI (UACC-62 melanoma): 765 nM

COc1cc(/C=C\c2cc(OC)c(OC)c(OC)c2)cc(N/C=C\C(=O)c2cc(OC)c(OC)c(OC)c2)c1OC
GI50 (COLO 205 colon): 2310 nM | TGI (COLO 205 colon): 5700 nM | GI50 (MCF7 breast): 2340 nM | TGI (MCF7 breast): > 100000 nM | GI50 (MOLT-4 leukemia): 4620 nM | TGI (MOLT-4 leukemia): > 100000 nM | GI50 (SNB-75 CNS): 1390 nM | TGI (SNB-75 CNS): 4810 nM | GI50 (SR leukemia): 2030 nM | TGI (SR leukemia): > 100000 nM | GI50 (UACC-257 melanoma): > 100000 nM | TGI (UACC-257 melanoma): > 100000 nM | GI50 (UACC-62 melanoma): 3110 nM | TGI (UACC-62 melanoma): > 100000 nM
